From patent US12103932B2, “Process for preparing substituted imidazo[4,5-c]pyrazoles” (Imam Abdulrahman Bin Faisal University, priority 2021, dated 2024)

How the values were obtained:
Assay in all cases: Paper disk diffusion antibacterial test
Format in all cases: cell-based
[1] = tested on: Staphylococcus epidermidis ATCC 12228
Procedure: (§1) In Vitro antimicrobial activity was evaluated using both gram-positive and gram-negative bacterial strains. The results reproduced here are exemplary and may include other microorganisms such as Escherichia coli, Listeria monocytogenes, Lactobacillus, yeast, vancomycin-resistant Enterococcus, molds, and spores. The in vitro antibacterial activity was evaluated for. gram-positive bacteria (Staphylococcus aureus ATCC 29213 and Staphylococcus epidermidis ATCC 12228) and gram-negative bacteria (Pseudomonas aeruginosa ATCC 27853) obtained from King Fahd Hospital, AlKhobar, Saudi Arabia.
(§2) Antimicrobial activity of three imidazopyrazole derivatives (1), (2) and (3) were evaluated qualitatively by paper disk diffusion method [CLSI.; Approved Standard, 11th ed.; CLSI document M02-A11; Clinical and Laboratory Standards Institute: Wayne, PA, USA, 2012, incorporated herein by reference in its entirety]. The three chemical materials i.e. compounds (1), (2) and (3) were prepared in different concentrations as follows: 0.01, 0.02, 0.03, 0.05, and 0.1 g/mL in dimethyl sulfoxide (DMSO) and tested directly. Paper discs measured 6 mm in diameter were soaked separately with 100 μL of the chemical materials and were left to dry. Bacterial inoculums were prepared from previous cultures in Muller-Hinton broth. The bacterial cell suspension turbidity was adjusted to a 0.5 McFarland standard, which represented approximately 1-2×10^8 colony-forming units (CFU)/mL using a Biomerieux DensiCHEK plus meter device (Missouri, MO, USA). Bacterial inoculums at 0.5 mL were transferred to petri plates under sterilized conditions. Melted Muller-Hinton agar at approximately 50° C. was poured over the inoculums, and to ensure even distribution of the inoculums, the plates were rotated neatly, then cultures were left to harden for 5 min. Then, previously prepared paper discs, saturated with chemicals, were transferred, using sterilized forceps, to the surface of petri plates that contained the bacterial cultures. Gentamicin (CN10 μg), aminoglycosides antibiotic was used as the positive control and DMSO was used as the negative control. The petri plates were placed in the refrigerator (General Electric, Medford, MA, USA) to allow diffusion of the chemicals into the agar for an hour. Then the petri plates were incubated at 37° C. for 24 h. After the incubation period ended, the area of inhibition around the discs was measured with a ruler. Three replicants were made to ensure the accuracy of the experiment.

[2] = tested on: Pseudomonas aeruginosa ATCC 27853
Procedure: as §1, §2

[3] = tested on: Staphylococcus aureus ATCC 29213
Procedure: as §1, §2

[4] = 0.05 g/mL in DMSO, 6 mm paper disc, 37° C. 24 h
[5] = 0.1 g/mL in DMSO, 6 mm paper disc, 37° C. 24 h

Compound	zone of inhibition (mm) means ± SD [1, 4] [mm]	zone of inhibition (mm) means ± SD [1, 5] [mm]	zone of inhibition (mm) means ± SD [2, 4] [mm]	zone of inhibition (mm) means ± SD [2, 5] [mm]	zone of inhibition (mm) means ± SD [3, 4] [mm]	zone of inhibition (mm) means ± SD [3, 5] [mm]	area of inhibition zone compared with positive control gentamicin ([3]; at the concentrations 0.05 g/mL and 0.01 g/mL, gentamicin CN10 μg)	zone of inhibition (mm) means ± SD ([1]; positive control, CN10 μg disc) [mm]	zone of inhibition (mm) means ± SD ([2]; positive control, CN10 μg disc) [mm]	zone of inhibition (mm) means ± SD ([3]; positive control, CN10 μg disc) [mm]
CC1=NN(c2ccccc2)C2=NC(=S)NC12 (stereo not shown) [(1), 3-Methyl-1-Phenyl-3a,4-Dihydro Imidazo(4,5-c) Pyrazole-5(1H)-Thione]	8.3 ± 0.6	8.3 ± 0.	10.0 ± 1.0	11.0 ± 1.0	7.7 ± 0.6	9.0 ± 1.0	–	–	–	–
CC1=NN(c2ccccc2)C2=NC(NC(N)=S)=NC12 (stereo not shown) [(2), 1-(3-Methyl-1-Phenyl-1,3a-Dihydroimidazo[4,5-c] Pyrazol-5-yl) Thiourea]	8.3 ± 0.6	9.3 ± 0.6	7.7 ± 0.6	8.3 ± 0.6	18.0 ± 0.0	18.7 ± 0.6	equal to gentamicin	–	–	–
CCOC(=O)CSC1=NC2C(C)=NN(c3ccccc3)C2=N1 (stereo not shown) [(3), Ethyl 2-((3-Methyl-1-Phenyl-1,3adihydroimidazo[4,5-c] Pyrazol-5-yl)thio) Acetate]	7.3 ± 0.6	8.7 ± 0.6	7.3 ± 0.6	7.3 ± 0.6	7.3 ± 0.6	8.7 ± 0.6	–	–	–	–
Gentamicin [reference compound]	–	–	–	–	–	–	–	21.3 ± 1.2	20.7 ± 1.2	18.7 ± 1.5
